Results reported in the supplement of paper PMC10307832.

Experiments:
Experiment in all cases: relative viability (nuclei count vs DMSO), 5 days (fraction); higher = more cells survive
[1] = compound: Cc1cnc(CNC(=O)c2c(=O)c3ccc(N4CCCN(C)CC4)nc3n3c2sc2ccccc23)cn1 [CX-5461] + O=C(c1cc(Cc2n[nH]c(=O)c3ccccc23)ccc1F)N1CCN(C(=O)C2CC2)CC1 [Olaparib] (partner 8 µM)
Outline: (§1)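 Lung cancer cell lines were pin-tool dosed in 1536-well plates on the day after seeding, with either a lone drug or a fixed anchor-drug dose plus five library-drug doses (not always all listed) in √10 steps. Nuclei were counted on 4× images after 5 days. Relative viability is the ratio of treated-well to vehicle-well nuclei counts, with each value a median of duplicate plates.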

[2] = compound: O=C(Nc1cc(C(F)(F)F)cc(C(F)(F)F)c1)c1cc(Cl)ccc1O [IMD-0354] + CC(=O)Nc1cccc(-n2c(=O)n(C3CC3)c(=O)c3c(Nc4ccc(I)cc4F)n(C)c(=O)c(C)c32)c1 [Trametinib] (partner 0.02 µM)
Outline: as §1

[3] = compound: O=C(Nc1cc(C(F)(F)F)cc(C(F)(F)F)c1)c1cc(Cl)ccc1O [IMD-0354] + COc1cccc2cc(-c3nc([C@H]4CC[C@H](C(=O)O)CC4)n4ncnc(N)c34)[nH]c12 [OSI-027] (partner 0.5 µM)
Outline: as §1

[4] = compound: O=C(Nc1cc(C(F)(F)F)cc(C(F)(F)F)c1)c1cc(Cl)ccc1O [IMD-0354] + C[C@@H](Oc1cc(-c2cnn(C3CCNCC3)c2)cnc1N)c1c(Cl)ccc(F)c1Cl [Crizotinib] (partner 1 µM)
Outline: as §1

Row | Cell Line | relative viability ([1]; first compound 0.01 µM) | relative viability ([1]; first compound 0.03162 µM) | relative viability ([1]; first compound 0.1 µM) | relative viability ([1]; first compound 0.3162 µM) | relative viability ([1]; first compound 1 µM) | relative viability ([2]; first compound 0.04 µM) | relative viability ([2]; first compound 0.1265 µM) | relative viability ([2]; first compound 0.4 µM) | relative viability ([2]; first compound 1.265 µM) | relative viability ([2]; first compound 4 µM) | relative viability ([3]; first compound 0.04 µM) | relative viability ([3]; first compound 0.1265 µM) | relative viability ([3]; first compound 0.4 µM) | relative viability ([3]; first compound 1.265 µM) | relative viability ([3]; first compound 4 µM) | relative viability ([4]; first compound 0.04 µM) | relative viability ([4]; first compound 0.1265 µM) | relative viability ([4]; first compound 0.4 µM) | relative viability ([4]; first compound 1.265 µM) | relative viability ([4]; first compound 4 µM)
1 | NCI-H2342 | 0.488 | 0.398 | 0.44 | 0.391 | 0.447 | 0.763 | 0.743 | 0.731 | 0.77 | 0.565 | 0.723 | 0.659 | 0.499 | 0.472 | 0.482 |  |  |  |  | 
2 | LK-2 | 0.664 | 0.957 | 0.918 |  | 0.497 | 0.831 | 0.669 |  | 0.874 | 0.255 | 0.193 | 0.198 | 0.235 | 0.19 | 0.215 | 0.22 | 0.201 | 0.28 | 0.29 | 0.244
3 | SK-LU-1 | 0.423 | 0.467 | 0.442 | 0.473 | 0.335 | 0.447 | 0.514 | 0.41 | 0.239 | 0.269 | 0.32 | 0.305 | 0.277 | 0.181 | 0.193 | 1.19 | 0.682 | 0.501 | 0.28 | 0.312
4 | HCC-366 | 0.444 | 0.444 | 0.429 | 0.315 | 0.273 | 0.479 | 0.404 | 0.251 | 0.0603 | 0.0454 | 0.909 | 0.929 | 0.496 | 0.209 | 0.0404 | 0.586 | 0.858 | 0.225 | 0.105 | 0.0509
5 | 201T | 0.888 | 0.841 | 0.856 | 0.84 | 0.793 | 0.732 | 0.74 | 0.611 | 0.727 | 0.319 | 0.596 | 0.882 |  | 0.553 | 0.175 | 1.09 | 1.02 | 0.815 | 1 | 0.389
6 | HCC-827 | 0.703 | 0.69 | 0.767 | 0.644 | 0.611 | 0.54 | 0.524 | 0.469 | 0.393 | 0.197 | 0.67 | 0.693 | 0.621 | 0.225 | 0.196 | 1 | 0.881 | 0.736 | 0.498 | 0.263
7 | NCI-H647 | 0.703 | 0.721 | 0.415 | 0.552 | 0.0876 | 0.432 | 0.616 | 0.175 | 0.107 | 0.0901 | 0.836 | 0.599 | 0.367 | 0.364 | 0.0879 | 1.37 | 1.2 | 0.505 | 0.168 | 0.185
8 | NCI-H1703 | 0.535 | 0.531 | 0.334 | 0.538 | 0.422 |  |  |  |  |  |  |  |  |  |  | 0.9 | 0.626 | 0.494 | 0.254 | 0.215
9 | Calu-6 | 0.523 | 0.546 | 0.482 | 0.543 | 0.253 |  |  |  |  |  |  |  |  |  |  | 0.842 | 0.689 | 0.506 | 0.276 | 0.164
10 | NCI-H1395 | 0.457 | 0.427 | 0.443 | 0.435 | 0.456 | 1.07 | 1.04 | 1.01 | 0.453 | 0.388 | 0.69 | 0.755 | 0.651 | 0.43 | 0.256 |  |  |  |  | 
11 | NCI-H1299 | 0.979 | 0.982 | 0.973 | 1 | 0.891 |  |  |  |  |  |  |  |  |  |  | 0.943 | 1 | 0.518 | 0.294 | 0.166
12 | ABC-1 | 0.798 |  | 1.04 | 0.594 | 0.517 |  |  |  |  |  | 0.517 | 0.331 | 0.369 | 0.207 | 0.23 | 1.42 | 1.22 | 0.765 | 0.221 | 0.269
13 | NCI-H1648 | 1.19 | 0.765 | 0.76 | 0.762 | 1.05 | 0.435 | 0.504 | 0.369 | 0.545 | 0.271 |  | 0.27 | 0.287 | 0.244 | 0.278 |  |  |  |  | 
14 | NCI-H1563 |  |  |  |  |  |  |  |  |  |  | 0.775 | 0.769 | 0.66 | 0.297 | 0.413 | 0.904 | 0.774 | 0.822 | 0.484 | 0.44
15 | A549 | 0.487 | 0.418 | 0.31 | 0.0579 | 0.0629 |  |  |  |  |  |  |  |  |  |  | 0.834 | 0.764 | 0.265 | 0.0905 | 0.121
16 | NCI-H522 | 0.647 | 0.645 | 0.664 |  | 0.664 | 0.749 | 0.778 | 0.732 | 0.6 | 0.454 | 0.723 | 0.683 | 0.688 | 0.385 | 0.343 |  |  |  |  | 
17 | NCI-H1623 |  |  |  |  |  |  |  |  |  |  | 0.464 | 0.395 | 0.458 | 0.409 | 0.37 |  |  |  |  | 
18 | SW 900 | 0.785 | 0.872 |  | 0.923 | 1 | 0.711 | 0.639 | 0.599 | 0.154 | 0.212 | 0.64 | 0.674 | 0.308 | 0.263 | 0.248 |  |  |  |  | 
19 | NCI-H1793 | 1.09 | 1 | 0.879 | 0.937 | 0.792 | 0.346 | 0.442 | 0.283 | 0.211 | 0.169 | 0.319 | 0.293 | 0.161 | 0.165 | 0.131 |  |  |  |  | 
20 | IA-LM | 0.838 | 0.83 | 0.807 | 0.753 | 0.444 |  |  |  |  |  |  |  |  |  |  | 0.948 | 0.974 | 0.51 | 0.0996 | 0.142
21 | EBC-1 | 0.684 | 0.701 | 0.595 | 0.706 | 0.579 |  |  |  |  |  |  |  |  |  |  | 0.19 | 0.204 | 0.208 | 0.209 | 0.177
